{
  "source": "patent EP1874270B1",
  "about": "“PHARMACEUTICAL AEROSOL COMPOSITION” (priority 2005, dated 2006)",
  "key": {"[1]": {"format": "physicochemical", "description": "Buffered aqueous solutions of tyloxapol, DMPC and tyloxapol in a mixture with DMPC were prepared. The saturation solubility of budesonide in these solutions was measured by adding an excess of budesonide and treating the sample with heat and ultrasound and subsequently allowing it to stand for equilibration. The equilibrated samples were filtered through a membrane filter with a pore width of 0.22 µm and the content of budesonide in the filtrate was determined. […]"}, "[2]": {"assay": "Colloidal solubilization of the active agent with non-ionic surfactant and lecithin"}, "[3]": {"assay": "Inhalation experiments: local anesthetic effect", "format": "in vivo", "settings": "inhalation of 0.55 % (w/v) lidocaine base in colloidal tyloxapol/DMPC solution (Example 5); effect undesirable in this context", "text": "Sometimes, but not necessarily, bad taste is accompanied by mucosal irritations caused by the substance. This occurs in various degrees which, in the case of application by inhalation, may range from slight irritation of the pharynx and/or respiratory tract to cough, fits of coughing, bronchoconstrictions and bronchospasms. […] In a further embodiment of the invention, the preparation accordingly contains an active agent which is irritating to the mucosa or causes coughing or bronchoconstrictions. In this connection, active agents from the group of corticoids, betamimetics, anti-cholinergics, anesthetics and antiinfectives are again preferred.\nAfter a sterile filtration, the colloidal solution was filled into pre-sterilized single dose containers (0.5 - 3 ml) of glass and polypropylene."}, "[4]": {"settings": "Polysorbate 80 0.10 wt.-%, Lipoid S100 1.0 wt.-%, ratio 1:10"}, "[5]": {"settings": "Polysorbate 80 0.50 wt.-%, Lipoid S100 3.0 wt.-%, ratio 1 : 6"}},
  "data": [
    {"compound": "CCCC1O[C@@H]2C[C@H]3[C@@H]4CCC5=CC(=O)C=C[C@]5(C)[C@H]4[C@@H](O)C[C@]3(C)[C@]2(C(=O)CO)O1", "note": "(stereo partly drawn) [Budesonide, budesonide]", "values": [
      {"measurement": "saturation concentration of budesonide in DMPC solutions", "setting": "[1]", "value": "could not be increased"},
      {"measurement": "Budesonide solubilized", "setting": "[2]; [4]", "value": 0.36, "unit": "mg/mL"},
      {"measurement": "Budesonide solubilized", "setting": "[2]; Polysorbate 80 0.15 wt.-%, Lipoid S100 1.5 wt.-%, ratio 1:10", "value": 0.43, "unit": "mg/mL"},
      {"measurement": "Budesonide solubilized", "setting": "[2]; Polysorbate 80 0.25 wt.-%, Lipoid S100 1.5 wt.-%, ratio 1 : 6", "value": 0.47, "unit": "mg/mL"},
      {"measurement": "Budesonide solubilized", "setting": "[2]; Polysorbate 80 0.40 wt.-%, Lipoid S100 1.5 wt.-%, ratio 1 : 3.75 (for comparison and/or reference only)", "value": 0.50, "unit": "mg/mL"},
      {"measurement": "Budesonide solubilized", "setting": "[2]; Polysorbate 80 0.50 wt.-%, Lipoid S100 2.0 wt.-%, ratio 1:4 (for comparison and/or reference only)", "value": 0.83, "unit": "mg/mL"},
      {"measurement": "Budesonide solubilized", "setting": "[2]; [5]", "value": 1.09, "unit": "mg/mL"},
      {"measurement": "Budesonide solubilized", "setting": "[2]; Solutrol HS 15 0.10 wt.-%, Lipoid S100 1.5 wt.-%, ratio 1 : 15", "value": 0.43, "unit": "mg/mL"},
      {"measurement": "Budesonide solubilized", "setting": "[2]; Solutrol HS 15 0.25 wt.-%, Lipoid S100 1.5 wt.-%, ratio 1 : 6", "value": 0.47, "unit": "mg/mL"},
      {"measurement": "Budesonide solubilized", "setting": "[2]; Solutrol HS 15 0.50 wt.-%, Lipoid S100 1.5 wt.-%, ratio 1 : 3.33 (for comparison and/or reference only)", "value": 0.48, "unit": "mg/mL"},
      {"measurement": "Budesonide solubilized", "setting": "[2]; Vitamin E TPGS 0.10 wt.-%, Lipoid S100 1.0 wt.-%, ratio 1 : 10", "value": 0.37, "unit": "mg/mL"},
      {"measurement": "Budesonide solubilized", "setting": "[2]; Vitamin E TPGS 0.10 wt.-%, Lipoid S100 1.5 wt.-%, ratio 1 : 15", "value": 0.44, "unit": "mg/mL"},
      {"measurement": "Budesonide solubilized", "setting": "[2]; Vitamin E TPGS 0.25 wt.-%, Lipoid S100 1.5 wt.-%, ratio 1 : 6", "value": 0.46, "unit": "mg/mL"},
      {"measurement": "Budesonide solubilized", "setting": "[2]; Vitamin E TPGS 0.50 wt.-%, Lipoid S100 1.5 wt.-%, ratio 1 : 3.33 (for comparison and/or reference only)", "value": 0.48, "unit": "mg/mL"},
      {"measurement": "Budesonide solubilized", "setting": "[2]; Vitamin E TPGS 0.50 wt.-%, Lipoid S100 2.0 wt.-%, ratio 1 : 4 (for comparison and/or reference only)", "value": 0.80, "unit": "mg/mL"},
      {"measurement": "Budesonide solubilized", "setting": "[2]; Vitamin E TPGS 0.50 wt.-%, Lipoid S100 3.0 wt.-%, ratio 1 : 6", "value": 1.09, "unit": "mg/mL"},
      {"measurement": "budesonide colloidally solubilized at a concentration of", "setting": "[2]; vitamin E TPGS 0.04 wt.-%, polysorbate 80 0.06 wt.-%, lecithin 1.0 wt.-%", "value": 0.38, "unit": "mg/mL"},
      {"measurement": "budesonide colloidally solubilized at a concentration of", "setting": "[2]; vitamin E TPGS 0.2 wt.-%, polysorbate 80 0.3 wt.-%, lecithin 3.0 wt.-%", "value": 0.95, "unit": "mg/mL"}
    ]},
    {"compound": "CCC(=O)O[C@]1(C(=O)SCF)[C@H](C)C[C@H]2[C@@H]3C[C@H](F)C4=CC(=O)C=C[C@]4(C)[C@@]3(F)[C@@H](O)C[C@@]21C", "note": "[Fluticasone prop., fluticasone propionate]", "values": [
      {"measurement": "Fluticasone prop. solubilized", "setting": "[2]; [4]", "value": 0.07, "unit": "mg/mL"},
      {"measurement": "Fluticasone prop. solubilized", "setting": "[2]; [5]", "value": 0.18, "unit": "mg/mL"}
    ]},
    {"compound": "CCN(CC)CC(=O)Nc1c(C)cccc1C", "note": "[lidocaine]", "values": [
      {"measurement": "local anesthetic effect of lidocaine", "setting": "[3]", "value": "reduced"}
    ]}
  ]
}
